# Results from PMC6938345, “Inhibition of complement activation, myeloperoxidase, NET formation and oxidant activity by PIC1 peptide variants” (PLoS ONE, 2019).
# What was measured:
# [1] = test system: purified human neutrophils; assay: NETosis assay, free DNA by PicoGreen; type: cell-based; conditions: Average of n = 3; peptide 2 mM
# Description: NETosis assays with immune complexes were performed as previously described. Briefly, normal human serum was stimulated with ovalbumin-antiovalbumin immune complexes in GVBS^++ for 30 minutes at 37 °C. This mixture along with 0.05% H2O2 was then added to purified human neutrophils resuspended in RPMI with or without sarcosine variants (2 mM), allowing NETosis to occur. Quantitation of free DNA released from the neutrophils was performed using PicoGreen. Slides were stained with DAPI (Southern Biotech, Birmingham, AL) and the following antibodies, mouse anti-elastase (Invitrogen, Carlsbad, CA) was used with the secondary goat anti-mouse Alexa Fluor 568 (Novus Biologicals, Centennial, CO) and rabbit anti-histone H3 (Abcam, Cambridge MA) with goat anti-rabbit Alexa Fluor 488 (Novus Biologicals) to visualize formation of NETs which were imaged with fluorescence microscopy with an Olympus BX53 microscope.
# In this assay purified human neutrophils are stimulated with normal human serum activated with ovalbumin-antiovalbumin immune complexes and hydrogen peroxide. Free DNA expressed from the neutrophils is then measured in a PicoGreen assay.
# Fig 5 Sarcosine variant inhibition of NET formation. Fluorescence microscopy images of NET formation after neutrophil stimulation with immune complexes (IC) and hydrogen peroxide (H2O2) compared with neutrophil only control. Variant I8 inhibition of NET formation is shown in the third row. Histones are probed with anti-histone antibody (αhistone), neutrophil elastase is probed with anti-neutrophil elastase (αNE) and DNA is stained with DAPI. Representative images are shown. […] Purified human neutrophils were stimulated with 2% normal human sera pre-incubated with ovalbumin-antiovalbumin immune complexes, and 0.05% H2O2. Sarcosine peptides and PIC1 were added to the sera to a final concentration of 2 mM. Data are the means of n = 3 independent experiments + SEM.
# [2] = biological target: T1, MPO heme ring (Homo sapiens, UniProt P05164); assay: MPO heme ring oxidative degradation; type: biochemical; conditions: peptides 3.0 mM, H2O2, absorbance 300-550 nm
# T1 construct: purchased Lee BioSolutions (Maryland Heights, MO)
# T1 sequence (P05164 49-745): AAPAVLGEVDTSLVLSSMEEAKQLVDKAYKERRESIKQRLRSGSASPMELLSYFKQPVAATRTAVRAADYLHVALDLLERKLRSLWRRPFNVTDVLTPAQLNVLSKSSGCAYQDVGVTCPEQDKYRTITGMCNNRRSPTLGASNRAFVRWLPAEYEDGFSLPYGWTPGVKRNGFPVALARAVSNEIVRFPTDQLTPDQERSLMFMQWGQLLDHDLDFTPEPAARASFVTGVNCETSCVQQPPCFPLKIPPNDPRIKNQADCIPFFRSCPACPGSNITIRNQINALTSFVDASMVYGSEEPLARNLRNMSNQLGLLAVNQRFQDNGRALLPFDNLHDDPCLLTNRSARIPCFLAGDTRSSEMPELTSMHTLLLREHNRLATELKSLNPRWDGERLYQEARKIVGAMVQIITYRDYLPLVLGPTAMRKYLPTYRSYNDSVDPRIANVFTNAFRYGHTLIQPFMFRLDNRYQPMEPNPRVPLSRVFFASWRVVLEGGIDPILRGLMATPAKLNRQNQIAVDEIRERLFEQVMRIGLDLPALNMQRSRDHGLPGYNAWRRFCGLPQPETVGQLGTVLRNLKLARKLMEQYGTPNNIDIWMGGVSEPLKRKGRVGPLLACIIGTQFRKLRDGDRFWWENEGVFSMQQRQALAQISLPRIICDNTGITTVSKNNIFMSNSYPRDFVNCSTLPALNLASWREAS
# Description: In a 96 well plate, 0.025 ml of 1.7 mg/ml MPO was combined with 0.00125 ml of 0.5% H2O2 and 3 mM PIC1 or sarcosine variant peptides in a total volume of 0.125 ml PBS and left to incubate at room temperature for 2 minutes. Using a 96 well plate reader, the wells were scanned for absorbance from 300–550 nm to generate curves reflecting the iron state in the MPO heme ring, as previously reported.
# We then evaluated the ability of the variants to prevent degradation of the heme ring in the MPO molecule. […] This can be evaluated via spectrometric measurements of absorption of wavelengths from 300–550 nm. Absorption measurements were made over this spectrum for all variants (Fig 3A–3H). […] The heme ring preservation for these two variants was greater than that for the parent compound, PA-dPEG24.
# Fig 3 Sarcosine variant protection of MPO heme ring from oxidative degradation. Absorbance spectra for the heme ring is shown in the absence of hydrogen peroxide (MPO) in red, in the presence of hydrogen peroxide (MPO+H2O2) in black, in the presence of peptide in blue, and in the presence of hydrogen peroxide and peptide together in green. […] B-H) Peptides A2 – C9,10 are denoted in the legends. Peptides were tested at a concentration of 3.0 mM.
# [3] = Total Antioxidant Capacity (TAC) assay
# Description: The TAC (Total Antioxidant Capacity) Assay (Cell Biolabs, Inc, San Diego, CA) was used to measure the antioxidant capacity of the sarcosine variants based on the reduction of copper (II) to copper (I). The kit protocol was performed as recommended.
# Antioxidant activity is measured in copper reducing equivalents (CRE). Peptides were tested over a range of concentrations from 0.03–0.25 mM then compared to the standard. Data are the means of n = 3 independent experiments + SEM.
# [4] = Peptide solubility in water
# Description: (PA) (Table 1) were synthesized by New England Peptide (Gardner, MA) to >90% purity. Sarcosine variants and PEG were dissolved in water and the pH was adjusted with NaOH. PA was dissolved in DMSO and then brought up to the final concentration with water resulting in 30% DMSO and pH adjusted. Antibody sensitized sheep erythrocytes (EA), purified C1q and factor B-depleted human sera were purchased from Complement Technology (Tyler, TX). Purified myeloperoxidase was purchased from Lee BioSolutions (Maryland Heights, MO) and tetramethylbenzidine (TMB) and PicoGreen were purchased from Thermo Fisher (Waltham MA).
# (PA), peptide derivatives were synthesized with sarcosine residues substituted at all 15 positions, included a peptide in which the vicinal cysteines at positions 9 and 10 (C9,C10) were replaced with a single sarcosine residue (Table 1).
# [5] = test system: antibody-initiated complement activation (type O sera + type AB red blood cells); assay: ABO incompatibility hemolytic assay (CH50-type, ex vivo); type: cell-based, human; conditions: peptides 1.8 mM
# Description: For hemolytic complement assays, human red blood cells (RBCs) from type AB donors were purified, washed and standardized to 1 × 10^9 cells/ml, as previously described. Human sera from type O donors at a 20% final concentration was combined with 1 mM PIC1 or sarcosine variant peptides and the volume was brought up to 0.15 ml with GVBS^++ and 0.5 ml RBCs. For factor B-depleted sera hemolytic assays, a final of 0.005% factor B depleted sera was incubated with 1 mM PIC1 or sarcosine variant peptides with 0.1 ml antibody-sensitized sheep red blood cells (EA) in a final volume of 0.75 ml GVBS^++. The samples were incubated for 1 hour at 37 °C and then 1.0 ml of GVBS^-—was added to the factor B-depleted samples to stop the reaction. The samples were spun at 3,000 rpm for 5 minutes and the supernatant was collected and read at 412 nm. Values are represented as a percent of the positive control, which consists of human O sera and AB red blood cells in GVBS^++ buffer.
# In order to evaluate the extent to which the peptide variants inhibit antibody-initiated complement activation, we tested them in two hemolytic assays including an ABO incompatibility ex vivo assay (Fig 1A) and a classical pathway CH50-type assay in factor B-depleted sera (Fig 1B). In the ABO incompatibility hemolytic assay, purified erythrocytes from a ‘type AB+’ donor are incubated with sera from a ‘type O’ subject containing anti-A and anti-B antibodies; peptides were tested at 1.8 mM. […] We then performed a CH50-type hemolytic assay, with antibody-sensitized sheep erythrocytes, isolating the classical pathway by utilizing factor B-depleted sera; peptides were tested at 0.4 mM.
# Fig 1 Sarcosine variant inhibition of complement activation in hemolytic assays and C1q binding. A) Inhibition of ABO incompatibility hemolysis in a CH50-type assay. Peptides are at a final concentration of 1.8 mM. […] Data are the means of n = 4 independent experiments + SEM. B) Inhibition of classical complement pathway-mediated hemolysis in factor B-depleted sera in a CH50-type assay. Peptides are at a final concentration of 0.4 mM. Data are the means of n = 4 independent experiments + SEM. C) Binding of increasing concentrations of sarcosine variants to purified C1q in an ELISA-type assay. Data are the means of n = 3 independent experiments ± SEM. D) Half-maximal binding concentrations were calculated for each peptide’s binding curve.
smiles,measurement,setting,value
CC[C@H](C)[C@H](N)C(=O)N[C@@H](C)C(=O)N[C@@H](CC(C)C)C(=O)N[C@H](C(=O)N[C@@H](CC(C)C)C(=O)N[C@@H](CCC(=O)O)C(=O)N1CCC[C@H]1C(=O)N[C@H](C(=O)N(C)CC(=O)N[C@@H](CS)C(=O)N[C@@H](CCC(N)=O)C(=O)N[C@@H](CCC(=O)O)C(=O)N[C@@H](CCCNC(=N)N)C(=O)N[C@@H](C)C(=O)N[C@@H](C)C(=O)O)[C@@H](C)CC)[C@@H](C)CC [C9],"PICO green - NETs, free DNA release",[1],38
same,protection of MPO heme ring from degradation (in words),[2],near perfect preservation
same,"TAC assay, antioxidant activity",[3]; Avg of n = 3,845.83 copper reducing equivalents (CRE)
same,antioxidant capacity (in words),[3]; TAC assay,approximately half of the antioxidant capacity as PA-dPEG24
same,solubility in water (in words),[4],soluble in water
same,ABO hemolysis,"[5]; Avg of n = 4, concentration basis of PIC1 not stated",18.25 % of Control
same,inhibition of ABO incompatible hemolysis (in words),[5],to a greater extent than did the PA-dPEG24
